{"source": "paper PMC11606603", "about": "“The membrane domains of mammalian adenylyl cyclases are lipid receptors” (eLife, 2024)", "assay_type_in_all_cases": "biochemical", "key": {"mAC3": {"target": "T1, mAC3 (Homo sapiens, UniProt O60266)", "T1 construct": "Human mAC genes were from GenScript and fitted with a C-terminal FLAG-tag; FLAG (C); made in house; host or cells: HEK293, permanently transfected; membrane preparation", "T1 sequence (O60266 whole entry)": "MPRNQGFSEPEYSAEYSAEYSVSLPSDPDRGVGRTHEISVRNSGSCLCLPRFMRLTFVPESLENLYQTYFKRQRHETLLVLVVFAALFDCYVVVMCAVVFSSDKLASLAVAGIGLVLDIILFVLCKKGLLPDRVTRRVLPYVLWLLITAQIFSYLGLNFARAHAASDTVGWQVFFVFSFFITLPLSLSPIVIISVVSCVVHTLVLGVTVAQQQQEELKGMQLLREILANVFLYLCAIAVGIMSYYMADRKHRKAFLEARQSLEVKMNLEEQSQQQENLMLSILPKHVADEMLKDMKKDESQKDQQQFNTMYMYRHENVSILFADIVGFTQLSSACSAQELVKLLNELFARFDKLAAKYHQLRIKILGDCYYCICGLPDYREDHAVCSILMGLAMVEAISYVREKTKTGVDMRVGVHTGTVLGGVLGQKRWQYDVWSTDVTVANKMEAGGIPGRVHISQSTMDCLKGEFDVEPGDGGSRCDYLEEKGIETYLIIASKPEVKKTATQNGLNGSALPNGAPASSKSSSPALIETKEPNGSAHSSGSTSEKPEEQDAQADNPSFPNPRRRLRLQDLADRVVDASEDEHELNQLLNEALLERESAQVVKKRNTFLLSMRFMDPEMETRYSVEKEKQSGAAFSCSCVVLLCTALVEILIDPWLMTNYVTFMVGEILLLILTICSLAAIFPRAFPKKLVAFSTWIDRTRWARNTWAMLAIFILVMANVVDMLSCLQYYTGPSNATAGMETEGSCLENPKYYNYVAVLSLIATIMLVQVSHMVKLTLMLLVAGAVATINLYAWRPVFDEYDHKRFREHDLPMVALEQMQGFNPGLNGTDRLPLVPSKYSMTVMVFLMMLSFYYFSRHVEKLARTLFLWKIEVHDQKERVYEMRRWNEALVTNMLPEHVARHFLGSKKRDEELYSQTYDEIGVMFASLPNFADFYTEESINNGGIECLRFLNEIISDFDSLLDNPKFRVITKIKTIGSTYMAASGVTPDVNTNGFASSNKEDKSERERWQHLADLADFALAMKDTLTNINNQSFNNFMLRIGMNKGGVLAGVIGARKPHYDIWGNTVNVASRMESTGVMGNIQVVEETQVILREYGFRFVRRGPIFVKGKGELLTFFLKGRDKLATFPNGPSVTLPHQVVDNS", "T1 sequence (P63092 whole entry Q227L partner)": "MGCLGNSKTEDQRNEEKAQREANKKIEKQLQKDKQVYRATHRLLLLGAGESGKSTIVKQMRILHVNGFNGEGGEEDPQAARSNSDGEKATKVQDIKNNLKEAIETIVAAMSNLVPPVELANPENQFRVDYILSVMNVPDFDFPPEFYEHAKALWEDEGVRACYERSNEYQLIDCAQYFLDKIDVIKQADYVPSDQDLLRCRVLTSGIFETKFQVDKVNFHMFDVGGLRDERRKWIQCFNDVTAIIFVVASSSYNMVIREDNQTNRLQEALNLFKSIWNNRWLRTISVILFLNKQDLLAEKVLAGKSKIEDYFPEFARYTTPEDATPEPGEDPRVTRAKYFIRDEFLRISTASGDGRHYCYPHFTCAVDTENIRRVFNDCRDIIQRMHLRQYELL", "assay": "AC assay, Gsα-stimulated mAC3 in membranes from transfected HEK293 cells", "conditions": "for mAC3 activity; stimulated by 300nM Gsα + 20µM Oleic acid: 37°C", "how_it_was_run": "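cAMP formation was quantified by HTRF against a cAMP standard curve, with EC50 or IC50 derived by curve fitting. Reactions contained 1 mM ATP, 2 mM MgCl2, 3 mM creatine phosphate, 60 μg/ml creatine kinase and 50 mM MOPS pH 7.5, using membranes of stably transfected HEK293 cells carrying FLAG-tagged human AC.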"}, "mAC4": {"target": "T2, mAC4 (Homo sapiens, UniProt Q8NFM4)", "T2 construct": "Human mAC genes were from GenScript and fitted with a C-terminal FLAG-tag; FLAG (C); made in house; host or cells: HEK293, permanently transfected; membrane preparation", "T2 sequence (Q8NFM4 1-1077)": "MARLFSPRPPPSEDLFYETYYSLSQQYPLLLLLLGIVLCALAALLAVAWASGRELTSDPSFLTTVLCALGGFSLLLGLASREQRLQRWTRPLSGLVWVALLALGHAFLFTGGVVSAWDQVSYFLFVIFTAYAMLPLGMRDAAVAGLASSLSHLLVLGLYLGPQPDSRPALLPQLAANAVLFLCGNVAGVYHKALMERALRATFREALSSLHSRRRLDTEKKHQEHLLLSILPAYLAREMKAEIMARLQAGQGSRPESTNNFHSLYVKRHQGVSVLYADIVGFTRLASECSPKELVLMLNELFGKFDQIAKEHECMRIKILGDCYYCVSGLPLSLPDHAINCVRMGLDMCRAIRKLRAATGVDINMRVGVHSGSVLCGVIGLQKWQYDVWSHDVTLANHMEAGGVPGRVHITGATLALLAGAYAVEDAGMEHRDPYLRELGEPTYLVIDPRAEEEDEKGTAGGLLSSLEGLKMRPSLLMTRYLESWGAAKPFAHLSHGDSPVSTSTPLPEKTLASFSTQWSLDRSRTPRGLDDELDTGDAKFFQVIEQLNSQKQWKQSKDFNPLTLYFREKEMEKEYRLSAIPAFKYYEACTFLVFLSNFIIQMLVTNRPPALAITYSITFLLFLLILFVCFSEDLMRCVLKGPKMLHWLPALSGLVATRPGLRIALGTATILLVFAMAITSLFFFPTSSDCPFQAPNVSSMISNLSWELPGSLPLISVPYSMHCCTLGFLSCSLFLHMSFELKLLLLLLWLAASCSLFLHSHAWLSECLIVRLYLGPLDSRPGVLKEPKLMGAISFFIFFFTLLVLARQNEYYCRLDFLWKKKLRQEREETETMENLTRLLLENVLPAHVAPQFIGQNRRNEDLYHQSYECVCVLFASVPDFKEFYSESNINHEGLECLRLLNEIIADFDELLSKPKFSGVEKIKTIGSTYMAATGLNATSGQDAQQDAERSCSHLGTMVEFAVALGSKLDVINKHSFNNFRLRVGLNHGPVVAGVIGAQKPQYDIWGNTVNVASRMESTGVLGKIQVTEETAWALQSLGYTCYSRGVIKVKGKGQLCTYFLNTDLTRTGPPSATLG", "assay": "AC assay, Gsα-stimulated mAC4 in membranes from transfected HEK293 cells", "how_it_was_run": "(§1)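 cAMP detected with a Cisbio kit, calibrated by a cAMP standard curve each run. Reaction: 1 mM ATP, 2 mM MgCl2, 3 mM creatine phosphate, 60 μg/ml creatine kinase, 50 mM MOPS pH 7.5. Enzyme source: membranes of stably transfected HEK293 (G418-selected) carrying FLAG-tagged human AC.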"}, "mAC5": {"target": "T3, mAC5 (Homo sapiens, UniProt O95622)", "T3 construct": "Human mAC genes were from GenScript and fitted with a C-terminal FLAG-tag; FLAG (C); made in house; host or cells: HEK293, permanently transfected; membrane preparation", "T3 sequence (O95622 whole entry)": "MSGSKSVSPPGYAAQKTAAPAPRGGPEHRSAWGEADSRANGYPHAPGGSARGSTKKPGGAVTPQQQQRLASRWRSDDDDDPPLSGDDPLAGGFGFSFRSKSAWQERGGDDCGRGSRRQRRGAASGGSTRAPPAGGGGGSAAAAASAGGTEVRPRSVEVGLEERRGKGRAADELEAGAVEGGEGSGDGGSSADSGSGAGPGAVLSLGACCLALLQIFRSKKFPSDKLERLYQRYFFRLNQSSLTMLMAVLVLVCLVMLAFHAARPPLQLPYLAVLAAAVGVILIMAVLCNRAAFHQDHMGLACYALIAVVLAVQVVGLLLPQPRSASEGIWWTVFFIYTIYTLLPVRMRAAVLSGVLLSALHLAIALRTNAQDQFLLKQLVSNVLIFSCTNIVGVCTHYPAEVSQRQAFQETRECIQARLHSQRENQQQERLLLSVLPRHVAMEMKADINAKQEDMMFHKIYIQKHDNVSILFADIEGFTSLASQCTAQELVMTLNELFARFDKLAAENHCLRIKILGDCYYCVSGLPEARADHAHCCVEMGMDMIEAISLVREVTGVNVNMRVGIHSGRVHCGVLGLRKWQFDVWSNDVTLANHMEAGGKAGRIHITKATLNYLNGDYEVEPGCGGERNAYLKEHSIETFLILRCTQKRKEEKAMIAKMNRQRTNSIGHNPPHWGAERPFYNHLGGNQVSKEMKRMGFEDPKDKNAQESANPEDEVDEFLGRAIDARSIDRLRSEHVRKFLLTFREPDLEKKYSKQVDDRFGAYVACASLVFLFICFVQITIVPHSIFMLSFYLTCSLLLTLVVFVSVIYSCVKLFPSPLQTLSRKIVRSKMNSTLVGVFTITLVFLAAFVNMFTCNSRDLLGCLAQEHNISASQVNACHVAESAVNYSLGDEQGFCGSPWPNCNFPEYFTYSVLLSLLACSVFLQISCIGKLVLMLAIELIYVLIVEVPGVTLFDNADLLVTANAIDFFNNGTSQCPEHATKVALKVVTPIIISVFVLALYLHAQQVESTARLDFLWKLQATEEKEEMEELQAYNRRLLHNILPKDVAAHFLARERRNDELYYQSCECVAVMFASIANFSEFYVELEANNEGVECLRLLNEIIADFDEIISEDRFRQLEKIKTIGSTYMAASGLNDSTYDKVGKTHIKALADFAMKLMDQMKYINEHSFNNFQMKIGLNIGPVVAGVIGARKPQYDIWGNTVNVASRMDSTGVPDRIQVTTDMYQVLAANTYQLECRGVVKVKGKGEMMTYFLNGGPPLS", "assay": "AC assay, Gsα-stimulated mAC5 in membranes from transfected HEK293 cells", "how_it_was_run": "as §1"}, "mAC8": {"target": "T4, mAC8 (Homo sapiens, UniProt P40145)", "T4 construct": "Human mAC genes were from GenScript and fitted with a C-terminal FLAG-tag; FLAG (C); made in house; host or cells: HEK293, permanently transfected; membrane preparation", "T4 sequence (P40145 whole entry)": "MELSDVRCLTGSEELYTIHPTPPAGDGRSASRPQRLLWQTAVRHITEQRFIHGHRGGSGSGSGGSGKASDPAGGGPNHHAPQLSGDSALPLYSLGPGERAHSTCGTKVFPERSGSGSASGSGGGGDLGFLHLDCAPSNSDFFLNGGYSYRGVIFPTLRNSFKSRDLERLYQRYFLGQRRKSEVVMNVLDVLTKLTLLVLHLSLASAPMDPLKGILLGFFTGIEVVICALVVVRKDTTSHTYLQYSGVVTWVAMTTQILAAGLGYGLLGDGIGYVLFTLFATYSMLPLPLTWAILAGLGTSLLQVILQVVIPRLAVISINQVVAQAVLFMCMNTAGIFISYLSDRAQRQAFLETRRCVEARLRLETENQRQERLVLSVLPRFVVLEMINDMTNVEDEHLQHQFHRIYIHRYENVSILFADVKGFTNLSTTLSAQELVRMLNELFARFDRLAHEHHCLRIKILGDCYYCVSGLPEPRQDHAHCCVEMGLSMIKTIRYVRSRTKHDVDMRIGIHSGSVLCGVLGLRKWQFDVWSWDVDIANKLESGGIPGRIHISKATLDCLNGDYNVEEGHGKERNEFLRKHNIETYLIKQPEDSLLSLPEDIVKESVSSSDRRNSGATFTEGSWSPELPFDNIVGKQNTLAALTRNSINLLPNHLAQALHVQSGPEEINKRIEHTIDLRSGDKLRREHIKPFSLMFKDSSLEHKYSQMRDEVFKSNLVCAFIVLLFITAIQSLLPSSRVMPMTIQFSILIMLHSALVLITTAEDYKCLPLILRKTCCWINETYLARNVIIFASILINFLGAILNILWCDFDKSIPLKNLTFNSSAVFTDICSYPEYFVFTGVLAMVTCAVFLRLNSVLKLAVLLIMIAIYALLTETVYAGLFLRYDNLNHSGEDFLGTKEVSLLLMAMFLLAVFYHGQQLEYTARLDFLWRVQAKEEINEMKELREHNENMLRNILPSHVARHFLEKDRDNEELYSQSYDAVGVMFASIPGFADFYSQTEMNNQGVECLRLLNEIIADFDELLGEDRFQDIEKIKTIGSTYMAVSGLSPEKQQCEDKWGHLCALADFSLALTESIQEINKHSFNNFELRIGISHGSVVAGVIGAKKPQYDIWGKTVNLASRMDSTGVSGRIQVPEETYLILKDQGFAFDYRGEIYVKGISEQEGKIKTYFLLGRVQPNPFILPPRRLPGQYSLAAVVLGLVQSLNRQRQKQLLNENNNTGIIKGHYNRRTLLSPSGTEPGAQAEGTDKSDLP", "assay": "AC assay, Gsα-stimulated mAC8 in membranes from transfected HEK293 cells", "how_it_was_run": "as §1"}, "[1]": {"conditions": "Figure 5 A, 20 µM oleic acid, 300 nM Gsα"}}, "note": "Several values for one entry are separate records, joined by “and”; a condition that tells them apart may be missing. Equal entries are not always repeated. Entries after “also recorded” stand apart in the source; their conditions may differ.", "data": [{"molecule": "CCCCCCCC/C=C\\CCCCCCCC(=O)O", "note": "[Oleic acid, Oleic ((9Z)-octadecenoic) acid]", "values": [{"measurement": "mAC3 activity [%] (100% = 300nM Gsα stimulation)", "setting": "mAC3; fatty acid 20 µM, individual experiments, listed as Oleic", "result": "298% and 532% and 253% and 428% and 297%"}, {"measurement": "mAC3 activity; stimulated by 300nM Gsα + 20µM Oleic acid", "setting": "mAC3; time 3 min", "result": "2.601 cAMP nmol/mg and 2.019 cAMP nmol/mg"}, {"measurement": "mAC3 activity; stimulated by 300nM Gsα + 20µM Oleic acid", "setting": "mAC3; time 6 min", "result": "2.734 cAMP nmol/mg and 2.75 cAMP nmol/mg"}, {"measurement": "mAC3 activity; stimulated by 300nM Gsα + 20µM Oleic acid", "setting": "mAC3; time 10 min", "result": 3.46, "unit": "cAMP nmol/mg"}, {"measurement": "mAC3 activity; stimulated by 300nM Gsα + 20µM Oleic acid", "setting": "mAC3; time 15 min", "result": "4.543 cAMP nmol/mg and 5.759 cAMP nmol/mg"}, {"measurement": "mAC3 activity; stimulated by 300nM Gsα + 20µM Oleic acid", "setting": "mAC3; time 20 min", "result": "6.22 cAMP nmol/mg and 8.564 cAMP nmol/mg"}, {"measurement": "mAC3 activity; stimulated by 300nM Gsα + 20µM Oleic acid", "setting": "mAC3; time 25 min", "result": "9.573 cAMP nmol/mg and 11.033 cAMP nmol/mg"}, {"measurement": "Vmax, mAC3", "setting": "mAC3; with 20 µM oleic acid", "result": 1.23, "unit": "nmol cAMP•mg^−1•min^−1"}, {"measurement": "mAC4 activity [%] (100% = 300nM Gsα stimulation); 20µM fatty acid concentration", "setting": "mAC4; 20 µM fatty acid, 300 nM Gsα, single experiments", "result": "100% and 72% and 120% and 92%"}, {"measurement": "Effect of lipid on 300 nM Gsα-stimulated mAC4", "setting": "mAC4; 20 µM, in words", "result": "unaffected"}, {"measurement": "mAC activity [%] (100% = 300nM Gsα stimulation); 20µM Oleic acid concentration, mAC4", "setting": "mAC4; [1]", "result": "72% and 92% and 64% and 100%"}, {"measurement": "mAC5 activity [%] (100% = 300nM Gsα stimulation)", "setting": "mAC5; 20µM fatty acid concentration", "result": "93% and 117% and 135% and 138%"}, {"measurement": "Effect of lipid on Gsα-stimulated mAC5", "setting": "mAC5; 20 µM, in words", "result": "not enhanced; also recorded: unaffected"}, {"measurement": "mAC activity [%] (100% = 300nM Gsα stimulation); 20µM Oleic acid concentration, mAC5", "setting": "mAC5; [1]", "result": "135% and 138% and 161% and 84% and 105% and 93% and 117%"}, {"measurement": "activity, mAC5 + 20µM Oleic acid", "setting": "mAC5; Gsα 30 nM", "result": 0.080, "unit": "cAMP nmol/mg/min"}, {"measurement": "activity, mAC5 + 20µM Oleic acid", "setting": "mAC5; Gsα 60 nM", "result": "0.233 cAMP nmol/mg/min and 0.334 cAMP nmol/mg/min"}, {"measurement": "activity, mAC5 + 20µM Oleic acid", "setting": "mAC5; Gsα 100 nM", "result": "0.353 cAMP nmol/mg/min and 0.362 cAMP nmol/mg/min"}, {"measurement": "activity, mAC5 + 20µM Oleic acid", "setting": "mAC5; Gsα 300 nM", "result": "0.752 cAMP nmol/mg/min and 1.165 cAMP nmol/mg/min"}, {"measurement": "activity, mAC5 + 20µM Oleic acid", "setting": "mAC5; Gsα 450 nM", "result": "1.160 cAMP nmol/mg/min and 1.405 cAMP nmol/mg/min"}, {"measurement": "activity, mAC5 + 20µM Oleic acid", "setting": "mAC5; Gsα 600 nM", "result": "1.213 cAMP nmol/mg/min and 1.684 cAMP nmol/mg/min"}, {"measurement": "activity, mAC5 + 20µM Oleic acid", "setting": "mAC5; Gsα 800 nM", "result": "1.245 cAMP nmol/mg/min and 1.702 cAMP nmol/mg/min"}, {"measurement": "activity, mAC5 + 20µM Oleic acid", "setting": "mAC5; Gsα 1000 nM", "result": "1.415 cAMP nmol/mg/min and 1.818 cAMP nmol/mg/min"}, {"measurement": "mAC5 activity [%] (100% = 300nM Gsα stimulation)", "setting": "mAC5; fatty acid 1 µM, individual experiments", "result": "126% and 196% and 115% and 78% and 64%"}, {"measurement": "mAC5 activity [%] (100% = 300nM Gsα stimulation)", "setting": "mAC5; fatty acid 3 µM, individual experiments", "result": "142% and 91% and 87%"}, {"measurement": "mAC5 activity [%] (100% = 300nM Gsα stimulation)", "setting": "mAC5; fatty acid 6 µM, individual experiments", "result": "146% and 127% and 77% and 90%"}, {"measurement": "mAC5 activity [%] (100% = 300nM Gsα stimulation)", "setting": "mAC5; fatty acid 10 µM, individual experiments", "result": "126% and 140% and 134% and 93%"}, {"measurement": "mAC5 activity [%] (100% = 300nM Gsα stimulation)", "setting": "mAC5; fatty acid 20 µM, individual experiments", "result": "93% and 117% and 135% and 138%"}, {"measurement": "activity [%] (100% = 300nM Gsα stimulation)", "setting": "mAC5; mAC5, 20µM Oleic acid concentration, Figure 9 C", "result": "161% and 84% and 93% and 117% and 135% and 138%"}, {"measurement": "mAC8 activity [%] (100% = 300nM Gsα stimulation)", "setting": "mAC8; 20µM fatty acid concentration", "result": "134% and 139%"}, {"measurement": "Effect of lipid on 300 nM Gsα-stimulated mAC8", "setting": "mAC8; 20 µM, in words", "result": "unaffected"}, {"measurement": "mAC activity [%] (100% = 300nM Gsα stimulation); 20µM Oleic acid concentration, mAC8", "setting": "mAC8; [1]", "result": "134% and 139%"}]}]}
